In patent US4464367A, “Cephalosporin derivatives, process for preparation thereof and drugs containing said derivatives usable as antibiotics” (Sanofi, priority 1980, dated 1984):
Values after ≈ are worked out from the molar mass of the structure shown. Counter-ions that a name gives are not always drawn. Like-named read-outs stand apart in the source and are kept apart here.

Assays:
[1] = tested on: Escherichia coli R 69/2 TEM; experiment: in vitro bacteriostatic action, solid medium, dilutions method; assay type: cell-based; conditions: R69/2TEM, read-out: minimum inhibitor concentration (MIC)
Method: (§1) The in vitro bacteriostatic action was determined in a solid medium by the dilutions method. The study was directed to Gram^+ and Gram^- strains of which several are known for producing β lactamases.
(§2) The results are expressed in the minimum inhibitor concentrations (MIC--μg/ml).

Escherichia coli A 223 = experiment: as above; assay type: cell-based; conditions: A223, not producing lactamases, read-out: minimum inhibitor concentration (MIC)
Method: as §1, §2

[2] = tested on: Escherichia coli SOL RL 90; experiment: as above; assay type: cell-based; conditions: SOLRL90, producing lactamases, read-out: minimum inhibitor concentration (MIC)
Method: as §1, §2

[3] = tested on: Klebsiella pneumoniae IP E 55; experiment: as above; assay type: cell-based; conditions: IPE55, not producing lactamases, read-out: minimum inhibitor concentration (MIC)
Method: as §1, §2

[4] = tested on: Staphylococcus aureus Smith; experiment: as above; assay type: cell-based; conditions: not producing lactamases, read-out: minimum inhibitor concentration (MIC)
Method: as §1, §2

[5] = tested on: Klebsiella pneumoniae RO 30; experiment: as above; assay type: cell-based; conditions: RO30, producing lactamases, read-out: minimum inhibitor concentration (MIC)
Method: as §1, §2

[6] = tested on: Escherichia coli SOL RL 90; experiment: therapeutic efficacy in septicaemia provoked in the mouse by Escherichia coli SOL RL 90; assay type: in vivo; conditions: SOLRL90, sc, 96 h, read-out: DE 50 (median effective dose, ED 50)
Method: The therapeutic efficacy of the products is determined in the septicaemic model of the mouse.
Septicaemia is provoked by intraperitoneal inoculation of 0.5 ml of an appropriate dilution of suspension of the strain E.coli Sol. RL 90 producing cephalosporinase.
The products are administered in solution in a phosphate buffer pH 7.0 in a volume of 0.2 ml by the sub-cutaneous route and at a rate of 5 doses (mg of product per kg of live weight of mouse) to batches of 10 mice 1 hour and 5 hours after inoculation of the germ.
After 4 days of observation during which the mortality is noted, the median effective doses (ED 50) are calculated by the Muench and Reed method.

[7] = solubility in a buffer solution; assay type: physicochemical; conditions: pH 7, aqueous buffer; buffer solution having a pH of 7
From the text: The pharmaceutical compositions are made from compounds (I) in their acid form or, when their solubility is insufficient, in the form of a salt.

SMILES	MIC [1] [µg/mL]	MIC (Escherichia coli A 223) [µg/mL]	MIC [2] [µg/mL]	MIC [3] [µg/mL]	MIC [4] [µg/mL]	MIC [5] [µg/mL]	ED50 ([6]; mouse septicaemia, sub-cutaneous, 1 hour and 5 hours after inoculation, 4 days of observation, Muench and Reed method) [mg/kg]	ED50 [6] [mg/kg]	solubility [7] [mg/mL]
CO/N=C(\C(=O)NC1C(=O)N2C(C(=O)O)=C(CSC(=O)c3ccco3)CSC12)c1csc(N)n1 (stereo not drawn) [31 916, Syn isomer [(amino-2 thiazolyl-4)-2 methoxyimino-2 acetamido]-7 (furyl-2 carbonylthiomethyl)-3 cepheme-3 4-carboxylic acid]	0.25 (≈ 0.477 µM)	0.5 (≈ 0.955 µM)	2 (≈ 3.82 µM)	1 (≈ 1.91 µM)	0.25 (≈ 0.477 µM)	8 (≈ 15.3 µM)	5.4	–	–
CO/N=C(\C(=O)NC1C(=O)N2C(C(=O)O)=C(CSC(=O)c3cccs3)CSC12)c1csc(N)n1 (stereo not drawn) [31 917, syn isomer [(amino-2 thiazolyl-4)-2 methoxyimino-2 acetamido]-7 (thienyl-2 carbonylthiomethyl)-3 cepheme-3 4-carboxylic acid]	0.5 (≈ 0.927 µM)	0.5 (≈ 0.927 µM)	2 (≈ 3.71 µM)	1 (≈ 1.85 µM)	0.25 (≈ 0.463 µM)	8 (≈ 14.8 µM)	–	3.6	–
CO/N=C(\C(=O)NC1C(=O)N2C(C(=O)O)=C(CSC(=O)c3ccco3)CSC12)c1csc(N)n1 (stereo not drawn) [sodium salt of compound CM 31916]	–	–	–	–	–	–	–	–	> 200
